Literature values as cited in patent publication US20090110646A1, “Product for Treating the Skin and Mucous Membranes, and Relative Method of Preparation” (priority 2005, published 2009).

Compound: O=C(O)C(Cl)(Cl)Cl [TCA, trichloracetic acid]
- depth of dermal necrosis (solution of TCA at about 30-40% w/w): 0.3-0.5 mm
- effect on skin (solution of TCA in a concentration of less than 25% w/w): exfoliation of the epidermis
- time of eschar (crust) until skin renewal (very concentrated TCA): 7 to 10 days
